In patent publication US20240325544A1, “CATIONIC LIPID FOR COVALENT MODIFICATION OF PEPTIDES” (PharmalN Corporation, priority 2023, published 2024):
Bridge positions count the residues as written; N and C are the ends. Square brackets hold non-standard residues; d marks the D form. Peptide text beside a SMILES is read from it. * marks the point of attachment. Palmitoyl = CCCCCCCCCCCCCCCC(=O)*; Dap = NC[C@H](N)C(=O)O; AEEA = NCCOCCOCC(=O)O

Key:
C57BL/6J mice = test: Bleomycin mouse model of idiopathic pulmonary fibrosis, alveolar area (FIG. 8); format: in vivo; details: Day 21
Method: FIGS. 8A-8B. […] Additionally, a normal control group (NC; n=3) without Bleo, and a Bleo Control group (n=7) without test article treatment were also included in this study. On Day 21 post Bleo administration, the mice were sacrificed under isoflurane anesthesia, and their lung tissues were harvested. FIG. 8B) A part of the lung tissue was fixed in 4% PFA, and Azan staining was performed, and alveolar areas (inversely proportional to the degree of fibrosis) were measured by Image J in a blinded setting. Error bars indicate standard error of the mean. Statistical analysis was performed by Student t-test on GraphPad Prism (n=3, 7, 7, 7, and 7); NC, Bleo Control, SEQ ID NO: 31, Pir, and Combo (SEQ ID NO: 31 & pirfenidone) *** P<0.001, ns=not significant vs NC.
Animal care and treatment: Male C57BL/6J mice (6 weeks-old) were purchased from Kyudo (Saga, Japan) and maintained under a 12-hour light/12-hour dark cycle with free access to water and standard mouse diet (MF diet, Oriental Yeast Co., Ltd. Tokyo, Japan). To induce lung fibrosis, mice received IT administration of bleomycin (Bleo; 1.0 mg/kg; Nippon Kayaku Tokyo, Japan). […] Alveolar area, which is inversely proportional to fibrotic area, were measured by Image J in a blinded setting (NIH, Bethesda, MD, USA).

LM8 osteosarcoma cells = test: Orthotopic mouse model of lung metastasis using osteosarcoma LM8 cells with amputation (FIG. 11); format: in vivo, mice; details: 0.3 mg/kg SC with amputation on Day 7; Day 34
Method: FIGS. 11A-11C. […] Error bars indicate standard error of the mean. […] Also illustrated in this diagram are the corresponding treatment schedules for SEQ ID NO: 31 and amputation. From tumor implantation, the SEQ ID NO: 31 treated group was dosed SC (0.3 mg/kg/0.1 μmol/kg in buffer) on Days 4-8, 11-15, 18-22, and 25-26. On Day 7 post-inoculation, all mice underwent amputation to remove the primary tumor. In place of treatment, the amputated control group also received buffer on the same days that SEQ ID NO: 31 was administered. Mice were sacrificed on Day 34, and lung tissues were harvested. FIGS. 11B and 11C) Lung tissues were soaked in 4% paraformaldehyde, paraffin-embedded, and sections were stained with hematoxylin and eosin (H&E). Lung images were observed using high-resolution microscopy (Keyence, Tokyo, Japan, #BZ-X700), and lung metastasis was evaluated by the direct count of present metastatic lung nodules. […]
Animal care and treatment: Male […] mice (7 weeks-old) were purchased from Kyudo (Saga, Japan) and maintained under a 12-hour light/12-hour dark cycle with free access to water and standard mouse diet (MF diet; Oriental Yeast Co., Ltd., Tokyo, Japan). […] Lung images were observed using the high-resolution microscopy (Keyence, Tokyo, Japan, #BZ-X700), and lung metastasis was evaluated by the direct count of present metastatic nodules (FIG. 11C). […]

CCCCCCCCCCCCCCCC(=O)NCCOCCOCC(=O)NCCOCCOCC(=O)NCCOCCOCC(=O)N[C@@H](CN)C(=O)N[C@@H](CN)C(=O)NCC(=O)N[C@@H](CC(C)C)C(=O)N[C@@H](CO)C(=O)N[C@@H](CCCCN)C(=O)NCC(=O)N[C@H]1CSSC[C@@H](C(=O)O)NC(=O)CNC(=O)[C@H](CC(C)C)NC(=O)CNC(=O)[C@H](CO)NC(=O)[C@H](CCC(N)=O)NC(=O)[C@H](CO)NC(=O)CNC(=O)[C@H]([C@@H](C)CC)NC(=O)[C@H](CCCNC(=N)N)NC(=O)[C@H](CC(=O)O)NC(=O)[C@H](CC(C)C)NC(=O)[C@H](CCCCN)NC(=O)[C@H](CC(C)C)NC(=O)CNC(=O)[C@H](Cc2ccccc2)NC1=O [SEQ ID NO: 31] ({Palmitoyl-AEEA-AEEA-AEEA}-[Dap][Dap]GLSKGCFGLKLDRIGSQSGLGC-OH; disulfide 8-24; C-terminus assumed)
Alveolar area (inversely proportional to fibrosis) (C57BL/6J mice; alone, 0.3 mg/kg SC once a day on weekdays from day 7): significantly higher alveolar area
Alveolar area (inversely proportional to fibrosis) (C57BL/6J mice; in combination with pirfenidone 100 mg/kg orally): significantly higher alveolar area
Metastatic nodules present in the lung vs amputation alone (LM8 osteosarcoma cells): significant reduction
